Experimental data as given in PubChem BioAssay AID2060624 (Molecular Pharmacology Branch, DTP, NCI, 2025).

System: 217524-143-R1-J4-PDC spheroids with HUVEC/MSC, viability
Assay: Anticancer human tumor 217524-143-R1-J4-PDC patient-derived pancreatic carcinoma cell line growth inhibition [CLK]
Conditions: for IC50: curve of first compound; for viability, T/C: stronger effect = lower value
In short: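 Multi-cell-type spheroids combined patient-derived tumor cells with HUVEC endothelial cells and human mesenchymal stem cells. Paired agents were dosed in half-log steps down from about clinical Cmax, or from 10 microM where Cmax was unknown.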

[1] = second compound 0.0316 µM, first compound 0.0316 µM
[2] = second compound 0.0316 µM, first compound 0.1 µM
[3] = second compound 0.0316 µM, first compound 0.316 µM
[4] = second compound 0.0316 µM, first compound 1 µM
[5] = second compound 0.0316 µM, first compound 3.16 µM
[6] = second compound 0.0316 µM, first compound 10 µM
[7] = second compound 0.1 µM, first compound 0.0316 µM
[8] = second compound 0.1 µM, first compound 0.1 µM
[9] = second compound 0.1 µM, first compound 0.316 µM
[10] = second compound 0.1 µM, first compound 1 µM
[11] = second compound 0.1 µM, first compound 3.16 µM
[12] = second compound 0.1 µM, first compound 10 µM
[13] = second compound 0.316 µM, first compound 0.0316 µM
[14] = second compound 0.316 µM, first compound 0.1 µM
[15] = second compound 0.316 µM, first compound 0.316 µM
[16] = second compound 0.316 µM, first compound 1 µM
[17] = second compound 0.316 µM, first compound 3.16 µM
[18] = second compound 0.316 µM, first compound 10 µM
[19] = second compound 1 µM, first compound 0.0316 µM
[20] = second compound 1 µM, first compound 0.1 µM
[21] = second compound 1 µM, first compound 0.316 µM
[22] = second compound 1 µM, first compound 1 µM
[23] = second compound 1 µM, first compound 3.16 µM
[24] = second compound 1 µM, first compound 10 µM
[25] = second compound 3.16 µM, first compound 0.0316 µM
[26] = second compound 3.16 µM, first compound 0.1 µM
[27] = second compound 3.16 µM, first compound 0.316 µM
[28] = second compound 3.16 µM, first compound 1 µM
[29] = second compound 3.16 µM, first compound 3.16 µM
[30] = second compound 3.16 µM, first compound 10 µM
[31] = second compound 10 µM, first compound 0.0316 µM
[32] = second compound 10 µM, first compound 0.1 µM
[33] = second compound 10 µM, first compound 0.316 µM
[34] = second compound 10 µM, first compound 1 µM
[35] = second compound 10 µM, first compound 3.16 µM
[36] = second compound 10 µM, first compound 10 µM
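Note: spheroids exposed to agents for seven days before reading.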
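Throughout, for viability, T/C: 100% = DMSO vehicle control viability.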

Q: Which results are given for `CC(C)CC(NC(=O)C(Cc1ccccc1)NC(=O)c1cnccn1)B(O)O` (stereo unspecified) + CNC(=O)c1ccc(Nc2nc(OC3CCCC3)c3c(-c4ccc5nc(C)oc5c4)c[nH]c3n2)c(OC)c1?
A: IC50 (second compound 0.0316 µM): 5.06 nM; IC50 (second compound 0.1 µM): 3.04 nM; IC50 (second compound 0.316 µM): < 0.949 nM; IC50 (second compound 1 µM): < 0.949 nM; IC50 (second compound 3.16 µM): < 0.949 nM; IC50 (second compound 10 µM): < 0.949 nM; viability, T/C (second compound 0.0316 µM, first compound 0.000949 µM): 90.4%; viability, T/C (second compound 0.0316 µM, first compound 0.003 µM): 71.8%; viability, T/C (second compound 0.0316 µM, first compound 0.00949 µM): 23.7%; viability, T/C (second compound 0.0316 µM, first compound 0.03 µM): 6.76%; viability, T/C (second compound 0.0316 µM, first compound 0.0949 µM): 3.97%; viability, T/C (second compound 0.0316 µM, first compound 0.3 µM): 1.1%; viability, T/C (second compound 0.1 µM, first compound 0.000949 µM): 45.6%; viability, T/C (second compound 0.1 µM, first compound 0.003 µM): 55.1%; viability, T/C (second compound 0.1 µM, first compound 0.00949 µM): 17.5%; viability, T/C (second compound 0.1 µM, first compound 0.03 µM): 5.06%; viability, T/C (second compound 0.1 µM, first compound 0.0949 µM): 2.97%; viability, T/C (second compound 0.1 µM, first compound 0.3 µM): 1.89%; viability, T/C (second compound 0.316 µM, first compound 0.000949 µM): 40.3%; viability, T/C (second compound 0.316 µM, first compound 0.003 µM): 47.1%; viability, T/C (second compound 0.316 µM, first compound 0.00949 µM): 18.7%; viability, T/C (second compound 0.316 µM, first compound 0.03 µM): 4.6%; viability, T/C (second compound 0.316 µM, first compound 0.0949 µM): 3.43%; viability, T/C (second compound 0.316 µM, first compound 0.3 µM): 2.04%; viability, T/C (second compound 1 µM, first compound 0.000949 µM): 29.1%; viability, T/C (second compound 1 µM, first compound 0.003 µM): 38.5%; viability, T/C (second compound 1 µM, first compound 0.00949 µM): 7.88%; viability, T/C (second compound 1 µM, first compound 0.03 µM): 2.84%; viability, T/C (second compound 1 µM, first compound 0.0949 µM): 2.06%; viability, T/C (second compound 1 µM, first compound 0.3 µM): 1.44%; viability, T/C (second compound 3.16 µM, first compound 0.000949 µM): 25.7%; viability, T/C (second compound 3.16 µM, first compound 0.003 µM): 41.2%; viability, T/C (second compound 3.16 µM, first compound 0.00949 µM): 5.46%; viability, T/C (second compound 3.16 µM, first compound 0.03 µM): 2.33%; viability, T/C (second compound 3.16 µM, first compound 0.0949 µM): 1.76%; viability, T/C (second compound 3.16 µM, first compound 0.3 µM): 1.27%; viability, T/C (second compound 10 µM, first compound 0.000949 µM): 24.6%; viability, T/C (second compound 10 µM, first compound 0.003 µM): 34.8%; viability, T/C (second compound 10 µM, first compound 0.00949 µM): 6.06%; viability, T/C (second compound 10 µM, first compound 0.03 µM): 2.66%; viability, T/C (second compound 10 µM, first compound 0.0949 µM): 1.59%; viability, T/C (second compound 10 µM, first compound 0.3 µM): 0.75%

Q: `CC1COCCN1c1cc(C2(S(C)(=N)=O)CC2)nc(-c2ccnc3[nH]ccc23)n1` (stereo unspecified) + CNC(=O)c1ccc(Nc2nc(OC3CCCC3)c3c(-c4ccc5nc(C)oc5c4)c[nH]c3n2)c(OC)c1 was tested. Which IC50 (second compound 0.0316 µM) did it give?
A: 1970 nM

Q: What about the IC50 (second compound 0.1 µM) of the same compound?
A: < 31.6 nM

Q: And the IC50 (second compound 0.316 µM)?
A: < 31.6 nM

Q: What about the IC50 (second compound 1 µM) of the same compound?
A: < 31.6 nM

Q: And the IC50 (second compound 3.16 µM)?
A: < 31.6 nM

Q: What about the IC50 (second compound 10 µM) of the same compound?
A: < 31.6 nM

Q: And the viability, T/C [1]?
A: 85.7%

Q: And the viability, T/C [2]?
A: 93.5%

Q: And the viability, T/C [3]?
A: 71.4%

Q: What about the viability, T/C [4] of the same compound?
A: 76.3%

Q: And the viability, T/C [5]?
A: 31.8%

Q: What about the viability, T/C [6] of the same compound?
A: 22.5%

Q: And the viability, T/C [7]?
A: 36.8%

Q: What about the viability, T/C [8] of the same compound?
A: 43.5%

Q: And the viability, T/C [9]?
A: 37.8%

Q: What about the viability, T/C [10] of the same compound?
A: 29.2%

Q: And the viability, T/C [11]?
A: 26.5%

Q: And the viability, T/C [12]?
A: 19.7%

Q: And the viability, T/C [13]?
A: 42.2%

Q: What about the viability, T/C [14] of the same compound?
A: 32.4%

Q: What about the viability, T/C [15] of the same compound?
A: 34.4%

Q: And the viability, T/C [16]?
A: 28.1%

Q: What about the viability, T/C [17] of the same compound?
A: 20.1%

Q: What about the viability, T/C [18] of the same compound?
A: 15.1%

Q: And the viability, T/C [19]?
A: 29.9%

Q: And the viability, T/C [20]?
A: 27.7%

Q: What about the viability, T/C [21] of the same compound?
A: 28.9%

Q: And the viability, T/C [22]?
A: 18.1%

Q: What about the viability, T/C [23] of the same compound?
A: 16.3%

Q: And the viability, T/C [24]?
A: 12.3%

Q: What about the viability, T/C [25] of the same compound?
A: 26.7%

Q: What about the viability, T/C [26] of the same compound?
A: 26%

Q: And the viability, T/C [27]?
A: 24.7%

Q: And the viability, T/C [28]?
A: 20.2%

Q: What about the viability, T/C [29] of the same compound?
A: 10.9%

Q: And the viability, T/C [30]?
A: 9.73%

Q: What about the viability, T/C [31] of the same compound?
A: 28.1%

Q: What about the viability, T/C [32] of the same compound?
A: 26.4%

Q: And the viability, T/C [33]?
A: 21.7%

Q: What about the viability, T/C [34] of the same compound?
A: 17.6%

Q: What about the viability, T/C [35] of the same compound?
A: 12.9%

Q: What about the viability, T/C [36] of the same compound?
A: 8.77%

Q: For `O=C(c1cc(Cc2n[nH]c(=O)c3ccccc23)ccc1F)N1CCN(C(=O)C2CC2)CC1` + CNC(=O)c1ccc(Nc2nc(OC3CCCC3)c3c(-c4ccc5nc(C)oc5c4)c[nH]c3n2)c(OC)c1, which IC50 (second compound 0.0316 µM) is on record?
A: > 10000 nM

Q: What about the IC50 (second compound 0.1 µM) of the same compound?
A: < 31.6 nM

Q: What about the IC50 (second compound 0.316 µM) of the same compound?
A: < 31.6 nM

Q: And the IC50 (second compound 1 µM)?
A: < 31.6 nM

Q: What about the IC50 (second compound 3.16 µM) of the same compound?
A: < 31.6 nM

Q: What about the IC50 (second compound 10 µM) of the same compound?
A: < 31.6 nM

Q: What about the viability, T/C [1] of the same compound?
A: 83.2%

Q: What about the viability, T/C [2] of the same compound?
A: 82.8%

Q: What about the viability, T/C [3] of the same compound?
A: 95.6%

Q: What about the viability, T/C [4] of the same compound?
A: 115%

Q: And the viability, T/C [5]?
A: 109%

Q: What about the viability, T/C [6] of the same compound?
A: 78.5%

Q: What about the viability, T/C [7] of the same compound?
A: 44.3%

Q: What about the viability, T/C [8] of the same compound?
A: 40.1%

Q: And the viability, T/C [9]?
A: 45.6%

Q: What about the viability, T/C [10] of the same compound?
A: 44.1%

Q: And the viability, T/C [11]?
A: 46.2%

Q: What about the viability, T/C [12] of the same compound?
A: 46.3%

Q: And the viability, T/C [13]?
A: 37.4%

Q: What about the viability, T/C [14] of the same compound?
A: 42.7%

Q: And the viability, T/C [15]?
A: 35.4%

Q: And the viability, T/C [16]?
A: 36.1%

Q: And the viability, T/C [17]?
A: 38.7%

Q: And the viability, T/C [18]?
A: 51.8%

Q: And the viability, T/C [19]?
A: 29.4%

Q: What about the viability, T/C [20] of the same compound?
A: 30.1%

Q: And the viability, T/C [21]?
A: 28%

Q: And the viability, T/C [22]?
A: 32.3%

Q: What about the viability, T/C [23] of the same compound?
A: 24.2%

Q: And the viability, T/C [24]?
A: 25.6%

Q: And the viability, T/C [25]?
A: 27%

Q: What about the viability, T/C [26] of the same compound?
A: 23.7%

Q: And the viability, T/C [27]?
A: 27.8%

Q: And the viability, T/C [28]?
A: 26.5%

Q: What about the viability, T/C [29] of the same compound?
A: 28.4%

Q: And the viability, T/C [30]?
A: 29.4%

Q: What about the viability, T/C [31] of the same compound?
A: 24.7%

Q: What about the viability, T/C [32] of the same compound?
A: 29.3%

Q: And the viability, T/C [33]?
A: 23.4%

Q: And the viability, T/C [34]?
A: 24.6%

Q: What about the viability, T/C [35] of the same compound?
A: 30.7%

Q: And the viability, T/C [36]?
A: 24.7%
